Assay results reported in patent US20040253256A1, “Biological compositions and methods for treatment of prostate cancer” (priority 2003, published 2004).
Like-named read-outs stand apart in the source and are kept apart here.

How the values were obtained:
human prostate cancer [1] = assay: Example 7: survival time in nude mouse model of human prostate cancer (thiotepa comparator); format: in vivo; conditions: for Number of live animals remaining in the groups after 30 days of treatment: 30 mice per group
Description: (§1) The animals were generally anaesthetized.
In group 2TSPA, the mice were injected intravenously with 2.2 mg of thiotepa (TSPA) per kg body weight per day.

human prostate cancer [2] = assay: Example 6: tumor growth in nude mouse model of human prostate cancer (thiotepa comparator); format: in vivo; conditions: 31st day from tumor inoculation; 30 consecutive days; AY/NY 0.3 ml oral once per day, TSPA 1.5 mg/kg/day i.v.
Description: The human prostate cancer sample was carefully selected before, during, and after surgery in order to ensure transplant occurred at the equivalent position in the mouse. The prostate cancer sample was obtained from patients who have not received any radiation, chemotherapy, or immune enhancement treatment.
as §1
In group TSPA, the mice were injected intravenously with 1.5 mg of thiotepa (TSPA) per kg body weight per day.

human prostate cancer [3] = conditions: for Number of live animals remaining in the groups after 30 days of treatment: 30 mice per group, 2CTX 45 mg/kg/day s.c.
Description: (§2) The animals used to generate the prostate cancer cells for the experiments were male nude mouse (obtainable from the Chinese Academy of Military Medical Sciences, Beijing, China) with an average weight of about 15 to 18 gram. Fresh prostate tumor cells (obtainable from the Cancer Institute, Chinese Academy of Medical Sciences, Beijing, China) were divided into sections of size 1-2 mm^3 and immediately stored in […] suspension after removal from the human patient.
The mouse were starved for 24 hours before the surgery. The animals were generally anaesthetized. The barbiturates was first diluted in saline and then injected at 0.3 to 0.4 ml per animal, or 30 mg per kg body weight, into the abdomen of the mice. Under sterile conditions, a 1 cm long opening in the body cavity was cut along the right rib of the mice for engraftment of the tumor. About 10^6 units of tumor cells (about 2 mg tumor pieces per ml culture medium) were transplanted. Afterwards, the opening was sutured and the mice were put back into the cage. The animals were allowed to grow for three to five weeks or when the tumor grows to about 1 to 2 cm^3 in size. […] The tumor was removed from a donor rat and minced aseptically in 4 ml of Hank's solution to form a cell suspension. About 10^6 units of tumor cells (about 0.2 ml cell suspension) were transplanted into a healthy batch of nude mice.
The survival time of mice after tumor injection and treatment was studied.
The biological composition comprising 10^8 cells per ml of activated and conditioned yeast cells of the strain Saccharomyces carlsbergensis Hansen strain AS2.440 was prepared by the methods described in Section 5.1 and subsections therein
The animals were prepared in a similar manner as described in Section 6.1.
The mice injected with tumor cells were kept for 2 weeks and then were divided into 4 experimental groups of ten mice per group and one control group. The four experimental groups were triplicated (i.e., using a total of 120 mice in the experimental groups). In group 2AY, the mice received 0.5 ml of the biological composition once per day. In group 2NY, the mice received 0.5 ml of the untreated yeast cells once per day. In group 2CTX, the mice were injected subcutaneously with 45 mg of cyclophosphamide (CTX) per kg body weight per day. In group 2CK1, the mice received 0.5 ml of physiological saline once per day.
The mice received the biological compositions, untreated yeast cells, CTX or saline on the same day as the tumor cells were transplanted. The mice in group 2CK2 also started receiving saline on the same day as the other four groups. The biological compositions, untreated yeast cells and saline were administered orally by a feeding tube and the CTX by subcutaneous injection for 30 consecutive days. The mice were observed over 6 months from the day of tumor inoculation and survival was recorded. The weight of the mice and the weight of the tumor were determined by standard techniques.

human prostate cancer [4] = conditions: 31st day from tumor inoculation; 30 consecutive days; AY/NY 0.3 ml oral once per day, CTX 30 mg/kg/day s.c.
Description: as §2
The mouse were starved for 24 hours before the surgery. The animals were generally anaesthetized. The barbiturates was first diluted in saline and then injected at 0.3 to 0.4 ml per animal, or 30 mg per kg body weight, into the abdomen of the mice. Under sterile conditions, a 1 cm long opening in the body cavity was cut along the right rib of the mice for engraftment of the tumor. About 10^6 units of tumor cells (about 2 mg tumor pieces per ml culture medium) were transplanted. Afterwards, the opening was sutured and the mice were put back into the cage. The animals were allowed to grow for three to five weeks or when the tumor grows to about 1 to 2 cm^3 in size. […]
The mice received the biological compositions, untreated yeast cells, CTX or saline on the same day as the tumor cells were transplanted. […] The weight of the mice and the weight of the tumor were determined by standard techniques.

[5] = mice that survived the 6 months observation, 2AY/2NY 0.5 ml oral daily, 2TSPA 2.2 mg/kg/day i.v., 30 days
[6] = mice that survived the 6 months observation, 2AY/2NY 0.5 ml oral daily, CTX 45 mg/kg/day s.c., 30 days

S=P(N1CC1)(N1CC1)N1CC1 [TSPA, thiotepa]
Number of live animals remaining in the groups after 30 days of treatment (human prostate cancer [1]; 0 month after cessation of treatment, 2AY/2NY 0.5 ml oral daily, 2TSPA 2.2 mg/kg/day i.v.): 30
Number of live animals remaining in the groups after 30 days of treatment (human prostate cancer [1]; 1 month after cessation of treatment, 2AY/2NY 0.5 ml oral daily, 2TSPA 2.2 mg/kg/day i.v.): 30
survival after six months from injection of tumor cells (human prostate cancer [1]; 2NY 0.5 ml per day, 2TSPA 2.2 mg/kg per day, 30 days): all died
Number of live animals remaining in the groups after 30 days of treatment (human prostate cancer [1]; 2 months after cessation of treatment, 2AY/2NY 0.5 ml oral daily, 2TSPA 2.2 mg/kg/day i.v.): 30
Number of live animals remaining in the groups after 30 days of treatment (human prostate cancer [1]; 3 months after cessation of treatment, 2AY/2NY 0.5 ml oral daily, 2TSPA 2.2 mg/kg/day i.v.): 27
Number of live animals remaining in the groups after 30 days of treatment (human prostate cancer [1]; 4 months after cessation of treatment, 2AY/2NY 0.5 ml oral daily, 2TSPA 2.2 mg/kg/day i.v.): 17
Number of live animals remaining in the groups after 30 days of treatment (human prostate cancer [1]; 5 months after cessation of treatment, 2AY/2NY 0.5 ml oral daily, 2TSPA 2.2 mg/kg/day i.v.): 5
Number of live animals remaining in the groups after 30 days of treatment (human prostate cancer [1]; 6 months after cessation of treatment, 2AY/2NY 0.5 ml oral daily, 2TSPA 2.2 mg/kg/day i.v.): 0
mean weight of mice and standard deviation (human prostate cancer [1]; [5]): all animals dead
mean weight of tumor nodules and standard deviation (human prostate cancer [1]; [5]): all animals dead
mean weight of mice and standard deviation (human prostate cancer [2]): 16.2 ± 1.7 g
mean weight of tumor nodules and standard deviation (human prostate cancer [2]): 2.4 ± 1.2 mg
mean weight of mice and standard deviation (human prostate cancer [3]; [6]): all animals dead
mean weight of tumor nodules and standard deviation (human prostate cancer [3]; [6]): all animals dead

O=P1(N(CCCl)CCCl)NCCCO1 (stereo not drawn) [CTX, cyclophosphamide]
mean weight of mice and standard deviation (human prostate cancer [4]): 16.7 ± 1.7 g
mean weight of tumor nodules and standard deviation (human prostate cancer [4]): 3.3 ± 1.7 g
Number of live animals remaining in the groups after 30 days of treatment (human prostate cancer [3]; 0 month after cessation of treatment, 2AY/2NY 0.5 ml oral daily): 30
Number of live animals remaining in the groups after 30 days of treatment (human prostate cancer [3]; 1 month after cessation of treatment, 2AY/2NY 0.5 ml oral daily): 30
survival after six months from injection of tumor cells (human prostate cancer [3]; 2NY 0.5 ml per day, 2CTX 45 mg/kg per day, 30 days): all died
Number of live animals remaining in the groups after 30 days of treatment (human prostate cancer [3]; 2 months after cessation of treatment, 2AY/2NY 0.5 ml oral daily): 30
Number of live animals remaining in the groups after 30 days of treatment (human prostate cancer [3]; 3 months after cessation of treatment, 2AY/2NY 0.5 ml oral daily): 27
Number of live animals remaining in the groups after 30 days of treatment (human prostate cancer [3]; 4 months after cessation of treatment, 2AY/2NY 0.5 ml oral daily): 22
Number of live animals remaining in the groups after 30 days of treatment (human prostate cancer [3]; 5 months after cessation of treatment, 2AY/2NY 0.5 ml oral daily): 17
Number of live animals remaining in the groups after 30 days of treatment (human prostate cancer [3]; 6 months after cessation of treatment, 2AY/2NY 0.5 ml oral daily): 0
